We go through 16 molecules from ChEMBL document CHEMBL4190161 (Medchemcomm, 2016).

In general, IC50 refers to the concentration that gives 50% inhibition.

A short description of assay [1]: Antioxidant activity of the compound in phosphate buffer at pH 7.4 assessed as trolox equivalent of AAPH-induced peroxyl radical scavenging activity at 6 uM pretreated for 2 mins followed by AAPH addition measured at 2 mins interval for 108 minutes by ORAC-FL assay. It counts as functional.
A short description of assay [2]: Antioxidant activity assessed as DPPH radical scavenging activity incubated for 30 mins under dark condition by spectrophotometric method. It is filed as functional. On the technique in general: Loss of DPPH colour is used to gauge radical scavenging.
The nature of assay [3]: Metal chelating activity assessed as compound-Fe2+ complex formation.
A short description of assay [4]: Antioxidant activity assessed as trolox equivalent of hydroxyl radical scavenging activity up to 25 mg/ml measured after 60 mins by fenton reaction method. It is filed as functional.
Assay [5] is described as follows: Antioxidant activity of the compound in phosphate buffer at pH 7.4 assessed as trolox equivalent of AAPH-induced peroxyl radical scavenging activity measured at 2 mins interval for 80 minutes by ORAC-FL assay. It is filed as functional.
The nature of assay [6]: Antioxidant activity assessed as ABTS radical scavenging activity measured within 12 mins by spectrophotometric method. It counts as functional.
Assay [7] is described as follows: Antioxidant activity assessed as DPPH radical scavenging activity measured after 20 mins by spectrophotometric method. It counts as functional.
Assay [8] in a line: Antioxidant activity of the compound in phosphate buffer at pH 6.6 assessed as trolox equivalent of potassium ferric cyanide ion reducing activity at 0.4 mM after 20 mins by spectrophotometric method. It counts as functional.
A short description of assay [9]: Antioxidant activity of the compound in phosphate buffered saline at pH 7.4 assessed as trolox equivalent of ABTS radical scavenging activity after 6 mins by spectrophotometric method. It is filed as functional.
Assay [10] in a line: Antioxidant activity assessed as DPPH radical scavenging activity measured after 30 mins by spectrophotometric method. It counts as functional.

The structures appear in SMILES notation. Active and inactive are the calls of the source. The calls are words filed in the database; no cut-off is given here. Starred links: 1 amine or outer side, 2 acyl side, 3 side chain; linkers in the order of their positions; H or OH if unused. Residues, ends and D or L forms follow the SMILES beside them. γGlu = O=C(O)[C@H](CCC(=O)[*:2])N[*:1]

`CC(C)C[C@H](NC(=O)[C@H](Cc1cnc[nH]1)NC(=O)[C@@H](N)Cc1ccc(O)cc1)C(=O)O`: the Activity (umolequiv/umol) in assay [1] came out at 0.36. In assay [2], the IC50 stood at 99.9 mM. The outcome in [3] was inactive. For the same molecule, in assay [4], the outcome was Active.

For the molecule `CSCC[C@H](N)C(=O)O`, the Activity (umolequiv/umol) in assay [5] turned out to be 1.13.

Take `N[C@@H](CS)C(=O)O`: the Activity (umolequiv/umol) in assay [5] was found to be 0.149.

Take `N[C@@H](Cc1c[nH]cn1)C(=O)O`: the Activity (umolequiv/umol) in [5] is 0.073.

Turning to `N[C@@H](Cc1ccc(O)cc1)C(=O)O`, in [5], the Activity (umolequiv/umol) is 1.57.

For `N[C@@H](Cc1ccccc1)C(=O)O`, in assay [5], the Activity (umolequiv/umol) is 0.0025.

On to `N[C@@H](CCC(=O)O)C(=O)N[C@@H](CS)C(=O)N[C@@H](Cc1cnc[nH]1)C(=O)O` (H-Glu-Cys-His-OH), for which the Activity (umolequiv/umol) in assay [1] came out at 0.1; in assay [8] it was 61.2. Further, the outcome in [6] and in assay [4] was Active. In addition, the result in assay [7] and in assay [3] was inactive. In assay [2], the IC50 came out at 0.11 mM.

Regarding `CC(C)C[C@H](NC(=O)[C@H](CCC(=O)O)NC(=O)CN)C(=O)O` (H-Gly-Glu-Leu-OH), the Activity (umolequiv/umol) in assay [1] was -0.1. Also, the IC50 in [2] came to 521 mM. In addition, the outcome in assay [3] and in [4] was inactive.

Take `CC(C)C[C@H](N)C(=O)N[C@@H](Cc1cnc[nH]1)C(=O)NCC(=O)O` (H-Leu-His-Gly-OH): the Activity (umolequiv/umol) in assay [1] was -0.48. Besides, the IC50 in assay [2] stood at 102 mM. Also, in assay [3], the outcome was inactive. Moreover, in [4], the result was Active.

For the molecule `CC(C)C[C@H](NC(=O)[C@@H](N)CCCCN)C(=O)N[C@@H](CCC(=O)O)C(=O)O` (H-Lys-Leu-Glu-OH), in assay [1], the Activity (umolequiv/umol) is -0.04. The IC50 in [2] was found to be 348 mM. For the same molecule, the result in [3] and in [4] was inactive.

For the molecule `CC(C)[C@H](NC(=O)[C@@H](N)CCCCN)C(=O)N[C@@H](Cc1cnc[nH]1)C(=O)O` (H-Lys-Val-His-OH), the Activity (umolequiv/umol) in assay [1] came out at 0.03. In addition, the IC50 in assay [2] was 285 mM. Moreover, the result in assay [3] was inactive. Further, in [4], the result was Active.

In the case of `CC(C)C[C@H](NC(=O)[C@H](CCCCN)NC(=O)[C@@H](N)Cc1ccccc1)C(=O)O` (H-Phe-Lys-Leu-OH), the values for the Activity (umolequiv/umol) in assay [1] and in [8] were -0.06 and 20.4, respectively. The IC50 in [2] amounted to 4.2 mM. In addition, in assay [3], the result was inactive. For the same molecule, the result in assay [4] was Active.

On to `O=C(O)CNC(=O)[C@H](CS)NC(=O)[C@@H]1CCCN1` (H-Pro-Cys-Gly-OH), for which the Activity (umolequiv/umol) in assay [1] was 0.2; in [8], 25.2. In addition, the outcome in assay [9] and in assay [4] was Active. Moreover, the result in [10] and in assay [3] was inactive. For the same molecule, the IC50 in assay [2] was determined as 0.3 mM.

Take `N[C@@H](Cc1ccc(O)cc1)C(=O)N[C@@H](CCC(=O)O)C(=O)NCC(=O)O` (H-Tyr-Glu-Gly-OH): the Activity (umolequiv/umol) in [1] is 1.2. For the same molecule, in [6], the outcome was Active. For the same molecule, the IC50 in assay [2] amounted to 78.8 mM. In addition, the result in assay [3] was inactive. For the same molecule, the Activity (mmolequiv/mmol) in [4] is 0.47.

In the case of `N[C@@H](CCC(=O)N[C@@H](CS)C(=O)N[C@@H](Cc1cnc[nH]1)C(=O)O)C(=O)O` (γGlu-Cys-His-OH), in assay [9], the outcome was Active.

With `N[C@@H](CCC(=O)N[C@@H](CS)C(=O)NCC(=O)O)C(=O)O` [GLUTATHIONE], the Activity (umolequiv/umol) in [1] worked out at 0.65; in [8] it was 50.7. The outcome in assay [6] was Active. The half-maximal inhibitory concentration (IC50) in assay [2] is 0.16 mM. Also, the result in assay [3] was inactive.
